Values quoted from earlier work, collected in US9498424B2, “Active mixtures of acylated oligopeptides and troxerutin” (Symrise AG, priority 2013, dated 2016).

Test system: mice

C[C@@H]1O[C@@H](OC[C@H]2O[C@@H](Oc3c(-c4ccc(OCCO)c(OCCO)c4)oc4cc(OCCO)cc(O)c4c3=O)[C@H](O)[C@@H](O)[C@@H]2O)[C@H](O)[C@H](O)[C@H]1O [Troxerutin]
CNS insulin resistance: reverse CNS insulin resistance | reactive oxygen species induced by a high-cholesterol diet: reduce reactive oxygen species
